# Legend:
# Type in all cases: biochemical
# Conditions in all cases: 100 micromolar inhibitor concentration; 100 is no change
# MKK1 = MKK1 (Homo sapiens, UniProt Q02750); test: Kinase profiling MKK1
# From the text: (§1) Any value less that 25 is considered to be highly significant inhibition.
# MKK2 = MKK2 (Homo sapiens, UniProt P36507); test: Kinase profiling MKK2
# From the text: as §1
# p38a MAPK = p38a MAPK (Homo sapiens, UniProt Q16539); test: Kinase profiling p38a MAPK
# From the text: as §1
# p38b MAPK = p38b MAPK (Homo sapiens, UniProt Q15759); test: Kinase profiling p38b MAPK
# From the text: as §1
# PKA = PKA (Homo sapiens, UniProt P17612); test: Kinase profiling PKA
# From the text: as §1
# ROCK 2 = ROCK 2 (Homo sapiens, UniProt O75116); test: Kinase profiling ROCK 2
# From the text: as §1
# PRK2 = PRK2 (Homo sapiens, UniProt Q16513); test: Kinase profiling PRK2
# From the text: as §1
# PKCa = PKCa (Homo sapiens, UniProt P17252); test: Kinase profiling PKCa
# From the text: as §1
# PKCz = biological target: T1, PKCz (Homo sapiens, UniProt Q05513); test: Kinase profiling PKCz
# T1 sequence (Q05513 1-592): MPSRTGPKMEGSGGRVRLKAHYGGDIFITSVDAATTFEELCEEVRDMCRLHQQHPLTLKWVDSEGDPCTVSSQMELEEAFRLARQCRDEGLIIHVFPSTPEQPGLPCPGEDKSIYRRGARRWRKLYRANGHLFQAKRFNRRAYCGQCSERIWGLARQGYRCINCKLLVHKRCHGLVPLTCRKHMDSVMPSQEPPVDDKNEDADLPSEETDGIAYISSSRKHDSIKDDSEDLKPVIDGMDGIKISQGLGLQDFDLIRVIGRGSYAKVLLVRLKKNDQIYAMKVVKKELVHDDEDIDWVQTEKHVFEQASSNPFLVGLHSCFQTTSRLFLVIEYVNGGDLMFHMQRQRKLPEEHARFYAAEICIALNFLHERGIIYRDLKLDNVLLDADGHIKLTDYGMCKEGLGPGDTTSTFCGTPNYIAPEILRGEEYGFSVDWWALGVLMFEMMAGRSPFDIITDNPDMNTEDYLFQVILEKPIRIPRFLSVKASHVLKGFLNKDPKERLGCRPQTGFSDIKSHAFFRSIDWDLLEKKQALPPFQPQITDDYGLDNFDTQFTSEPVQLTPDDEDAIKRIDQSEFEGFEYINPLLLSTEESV
# From the text: as §1
# CAMKKb = CAMKKb (Homo sapiens, UniProt Q96RR4); test: Kinase profiling CAMKKb
# From the text: as §1
# SmMLCK = SmMLCK (Homo sapiens, UniProt Q15746); test: Kinase profiling SmMLCK
# MARK3 = MARK3 (Homo sapiens, UniProt P27448); test: Kinase profiling MARK3
# From the text: as §1
# TBK1 = biological target: T2, TBK1 (Homo sapiens, UniProt Q9UHD2); test: Kinase profiling TBK1
# T2 sequence (Q9UHD2 1-729): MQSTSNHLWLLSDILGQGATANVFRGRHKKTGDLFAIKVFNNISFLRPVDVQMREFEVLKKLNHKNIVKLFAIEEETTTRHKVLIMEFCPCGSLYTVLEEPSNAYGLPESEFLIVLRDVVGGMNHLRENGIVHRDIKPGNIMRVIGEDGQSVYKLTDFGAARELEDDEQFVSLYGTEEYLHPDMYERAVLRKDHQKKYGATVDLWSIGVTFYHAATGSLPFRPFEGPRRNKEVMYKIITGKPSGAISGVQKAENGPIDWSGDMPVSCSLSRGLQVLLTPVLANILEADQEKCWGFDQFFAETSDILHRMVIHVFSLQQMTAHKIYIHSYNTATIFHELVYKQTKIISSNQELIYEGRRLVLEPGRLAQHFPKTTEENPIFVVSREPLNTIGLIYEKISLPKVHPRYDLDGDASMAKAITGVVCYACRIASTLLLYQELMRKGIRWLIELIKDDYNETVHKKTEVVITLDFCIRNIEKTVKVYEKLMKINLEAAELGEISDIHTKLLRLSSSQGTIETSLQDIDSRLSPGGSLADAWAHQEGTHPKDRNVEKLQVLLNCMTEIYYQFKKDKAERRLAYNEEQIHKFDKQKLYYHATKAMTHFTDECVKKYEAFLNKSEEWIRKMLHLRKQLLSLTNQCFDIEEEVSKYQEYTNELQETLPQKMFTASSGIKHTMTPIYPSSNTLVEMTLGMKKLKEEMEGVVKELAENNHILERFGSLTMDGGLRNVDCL
# From the text: as §1
# PAK4 = PAK4 (Homo sapiens, UniProt O96013); test: Kinase profiling PAK4
# From the text: as §1
# Src = Src (Homo sapiens, UniProt P12931); test: Kinase profiling Src
# From the text: as §1
# Lck = Lck (Homo sapiens, UniProt P06239); test: Kinase profiling Lck
# From the text: as §1
# SYK = SYK (Homo sapiens, UniProt P43405); test: Kinase profiling SYK
# From the text: as §1
# IGF-1R = IGF-1R (Homo sapiens, UniProt P08069); test: Kinase profiling IGF-1R
# From the text: as §1
# VEG-FR = test: Kinase profiling VEG-FR
# From the text: as §1
# Chain of CAMKKb (Q96RR4 whole entry, species assumed): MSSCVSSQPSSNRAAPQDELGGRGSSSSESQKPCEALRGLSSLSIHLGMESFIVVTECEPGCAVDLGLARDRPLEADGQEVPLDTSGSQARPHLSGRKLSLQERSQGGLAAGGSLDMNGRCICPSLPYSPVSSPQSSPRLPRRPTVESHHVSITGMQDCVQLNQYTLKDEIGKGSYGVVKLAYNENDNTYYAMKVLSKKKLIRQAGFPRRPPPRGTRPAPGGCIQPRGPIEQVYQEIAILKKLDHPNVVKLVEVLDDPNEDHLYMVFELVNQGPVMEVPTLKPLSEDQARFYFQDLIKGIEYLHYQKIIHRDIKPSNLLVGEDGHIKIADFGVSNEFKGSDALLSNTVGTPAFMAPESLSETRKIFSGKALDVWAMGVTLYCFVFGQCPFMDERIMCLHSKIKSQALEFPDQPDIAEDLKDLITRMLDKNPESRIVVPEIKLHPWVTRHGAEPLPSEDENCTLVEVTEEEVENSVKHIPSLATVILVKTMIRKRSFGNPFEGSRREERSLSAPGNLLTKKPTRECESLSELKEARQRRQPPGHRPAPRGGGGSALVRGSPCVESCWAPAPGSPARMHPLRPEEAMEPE
# Chain of PAK4 (O96013 whole entry, species assumed): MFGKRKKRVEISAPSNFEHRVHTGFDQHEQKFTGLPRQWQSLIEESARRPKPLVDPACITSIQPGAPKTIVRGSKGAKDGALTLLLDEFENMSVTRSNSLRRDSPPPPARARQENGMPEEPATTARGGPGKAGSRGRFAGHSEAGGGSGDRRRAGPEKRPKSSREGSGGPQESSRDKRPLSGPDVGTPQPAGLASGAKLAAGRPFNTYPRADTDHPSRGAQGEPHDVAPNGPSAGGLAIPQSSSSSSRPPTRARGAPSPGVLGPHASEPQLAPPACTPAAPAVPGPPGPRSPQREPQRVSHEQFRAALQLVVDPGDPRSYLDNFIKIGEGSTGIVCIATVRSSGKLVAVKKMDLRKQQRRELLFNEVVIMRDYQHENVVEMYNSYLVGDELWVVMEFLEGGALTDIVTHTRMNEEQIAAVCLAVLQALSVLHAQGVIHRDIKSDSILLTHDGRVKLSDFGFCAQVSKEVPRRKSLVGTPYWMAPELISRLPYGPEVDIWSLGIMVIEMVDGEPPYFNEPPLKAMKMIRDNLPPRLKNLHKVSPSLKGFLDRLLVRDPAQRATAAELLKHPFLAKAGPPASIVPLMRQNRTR
# Chain of SmMLCK (Q15746 923-1914): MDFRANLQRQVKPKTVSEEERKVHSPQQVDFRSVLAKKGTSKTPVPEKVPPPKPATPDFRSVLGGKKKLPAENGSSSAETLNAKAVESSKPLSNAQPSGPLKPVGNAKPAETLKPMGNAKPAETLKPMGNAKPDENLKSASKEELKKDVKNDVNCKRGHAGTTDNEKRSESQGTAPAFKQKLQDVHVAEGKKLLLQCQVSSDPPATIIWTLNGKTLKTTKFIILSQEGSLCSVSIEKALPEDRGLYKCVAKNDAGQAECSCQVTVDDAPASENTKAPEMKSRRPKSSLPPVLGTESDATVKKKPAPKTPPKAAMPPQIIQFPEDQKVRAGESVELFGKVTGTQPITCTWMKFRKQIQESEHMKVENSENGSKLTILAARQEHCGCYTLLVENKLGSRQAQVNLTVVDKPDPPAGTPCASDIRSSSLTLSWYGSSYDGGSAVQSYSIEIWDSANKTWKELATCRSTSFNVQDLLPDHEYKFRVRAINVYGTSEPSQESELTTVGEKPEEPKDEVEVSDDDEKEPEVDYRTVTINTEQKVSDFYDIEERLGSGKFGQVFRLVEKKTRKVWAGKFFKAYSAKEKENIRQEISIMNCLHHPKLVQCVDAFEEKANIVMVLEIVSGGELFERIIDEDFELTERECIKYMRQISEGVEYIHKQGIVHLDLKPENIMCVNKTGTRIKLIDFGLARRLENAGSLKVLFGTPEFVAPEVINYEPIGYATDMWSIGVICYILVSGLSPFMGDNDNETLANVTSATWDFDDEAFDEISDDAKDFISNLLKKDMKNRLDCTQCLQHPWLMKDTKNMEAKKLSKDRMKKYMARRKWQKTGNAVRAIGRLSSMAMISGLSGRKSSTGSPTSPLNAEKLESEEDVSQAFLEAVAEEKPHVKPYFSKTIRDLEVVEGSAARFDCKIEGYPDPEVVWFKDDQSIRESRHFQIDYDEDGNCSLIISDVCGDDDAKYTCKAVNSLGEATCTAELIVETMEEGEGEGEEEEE
# Chain of p38b MAPK (Q15759 whole entry): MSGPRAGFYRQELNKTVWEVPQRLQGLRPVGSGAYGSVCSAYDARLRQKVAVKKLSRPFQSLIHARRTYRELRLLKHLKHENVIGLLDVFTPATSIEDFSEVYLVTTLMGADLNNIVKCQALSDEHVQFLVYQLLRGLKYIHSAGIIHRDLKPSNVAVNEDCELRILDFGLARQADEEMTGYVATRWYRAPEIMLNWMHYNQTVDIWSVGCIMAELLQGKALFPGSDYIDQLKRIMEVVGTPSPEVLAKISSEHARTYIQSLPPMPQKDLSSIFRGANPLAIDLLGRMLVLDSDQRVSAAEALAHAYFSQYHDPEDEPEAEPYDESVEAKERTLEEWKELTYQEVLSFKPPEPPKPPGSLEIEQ
# Chain of IGF-1R (P08069 31-1367, species assumed): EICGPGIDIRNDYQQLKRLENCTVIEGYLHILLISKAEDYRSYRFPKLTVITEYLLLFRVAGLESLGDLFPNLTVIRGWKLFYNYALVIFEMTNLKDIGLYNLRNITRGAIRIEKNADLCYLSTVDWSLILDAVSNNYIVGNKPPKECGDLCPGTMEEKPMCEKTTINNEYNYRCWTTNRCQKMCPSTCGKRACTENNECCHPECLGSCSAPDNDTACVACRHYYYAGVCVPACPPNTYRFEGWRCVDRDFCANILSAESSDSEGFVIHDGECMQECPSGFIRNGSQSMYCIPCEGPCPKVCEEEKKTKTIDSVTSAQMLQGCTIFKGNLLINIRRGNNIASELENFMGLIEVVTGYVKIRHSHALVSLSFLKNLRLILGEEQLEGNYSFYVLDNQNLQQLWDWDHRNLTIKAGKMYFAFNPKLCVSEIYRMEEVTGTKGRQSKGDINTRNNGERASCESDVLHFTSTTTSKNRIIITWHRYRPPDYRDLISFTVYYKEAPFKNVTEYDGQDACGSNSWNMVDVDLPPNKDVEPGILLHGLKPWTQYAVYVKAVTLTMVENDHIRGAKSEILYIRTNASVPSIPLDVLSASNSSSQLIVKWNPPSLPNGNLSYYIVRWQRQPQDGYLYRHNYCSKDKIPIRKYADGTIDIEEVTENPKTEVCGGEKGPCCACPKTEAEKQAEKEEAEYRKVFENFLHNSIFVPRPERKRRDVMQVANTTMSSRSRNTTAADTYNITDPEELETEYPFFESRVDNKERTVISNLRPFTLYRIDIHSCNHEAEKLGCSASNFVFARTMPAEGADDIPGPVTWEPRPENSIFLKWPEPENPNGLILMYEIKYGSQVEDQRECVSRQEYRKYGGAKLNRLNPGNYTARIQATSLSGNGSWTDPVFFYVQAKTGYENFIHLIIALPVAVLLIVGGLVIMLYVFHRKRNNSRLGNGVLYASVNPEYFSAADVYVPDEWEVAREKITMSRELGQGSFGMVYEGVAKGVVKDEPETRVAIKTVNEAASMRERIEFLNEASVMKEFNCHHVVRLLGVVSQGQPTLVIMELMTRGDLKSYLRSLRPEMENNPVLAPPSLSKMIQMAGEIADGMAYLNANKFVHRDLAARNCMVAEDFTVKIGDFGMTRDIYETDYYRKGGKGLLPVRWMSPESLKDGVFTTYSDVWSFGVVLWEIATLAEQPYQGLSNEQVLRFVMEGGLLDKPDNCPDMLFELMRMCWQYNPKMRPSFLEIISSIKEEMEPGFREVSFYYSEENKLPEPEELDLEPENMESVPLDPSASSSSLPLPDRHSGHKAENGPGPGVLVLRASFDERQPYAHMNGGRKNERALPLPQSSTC
# Chain of MARK3 (P27448 whole entry, species assumed): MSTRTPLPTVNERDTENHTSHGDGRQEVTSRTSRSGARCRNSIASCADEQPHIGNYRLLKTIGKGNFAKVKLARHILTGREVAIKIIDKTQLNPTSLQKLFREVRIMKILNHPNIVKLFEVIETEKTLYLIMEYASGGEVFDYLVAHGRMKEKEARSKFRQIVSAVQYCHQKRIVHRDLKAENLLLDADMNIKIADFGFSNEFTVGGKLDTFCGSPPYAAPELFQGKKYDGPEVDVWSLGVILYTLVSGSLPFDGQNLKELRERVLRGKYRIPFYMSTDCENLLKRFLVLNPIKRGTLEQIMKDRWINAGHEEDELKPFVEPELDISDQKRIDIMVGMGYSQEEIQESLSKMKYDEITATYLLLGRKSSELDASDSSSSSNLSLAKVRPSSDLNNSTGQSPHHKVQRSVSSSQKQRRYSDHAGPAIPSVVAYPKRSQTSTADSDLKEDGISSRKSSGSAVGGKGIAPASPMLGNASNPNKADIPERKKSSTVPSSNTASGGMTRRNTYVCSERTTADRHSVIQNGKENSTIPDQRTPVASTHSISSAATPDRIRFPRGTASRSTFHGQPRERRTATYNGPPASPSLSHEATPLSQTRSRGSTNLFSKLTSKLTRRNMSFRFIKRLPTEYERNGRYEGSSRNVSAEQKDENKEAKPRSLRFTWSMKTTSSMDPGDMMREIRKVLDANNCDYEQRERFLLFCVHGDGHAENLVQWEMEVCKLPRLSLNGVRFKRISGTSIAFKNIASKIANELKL
# Chain of p38a MAPK (Q16539 whole entry): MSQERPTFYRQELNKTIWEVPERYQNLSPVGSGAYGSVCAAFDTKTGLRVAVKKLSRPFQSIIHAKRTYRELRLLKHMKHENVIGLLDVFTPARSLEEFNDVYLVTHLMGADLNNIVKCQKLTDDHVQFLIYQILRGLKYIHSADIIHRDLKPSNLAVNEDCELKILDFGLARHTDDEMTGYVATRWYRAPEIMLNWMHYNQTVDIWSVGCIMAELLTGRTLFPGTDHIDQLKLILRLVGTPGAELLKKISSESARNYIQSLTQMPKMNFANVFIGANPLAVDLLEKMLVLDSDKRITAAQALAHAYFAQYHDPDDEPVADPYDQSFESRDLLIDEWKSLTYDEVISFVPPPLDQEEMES
smiles,measurement,setting,value
O=C(Nc1nc2ccc(O)cc2s1)c1cccnc1 [Compound 08-44],"residual kinase activity, MKK1",MKK1,67
same,"residual kinase activity, MKK2",MKK2,48
same,"residual kinase activity, p38a MAPK",p38a MAPK,108
same,"residual kinase activity, p38b MAPK",p38b MAPK,89
same,"residual kinase activity, PKA",PKA,92
same,"residual kinase activity, ROCK 2",ROCK 2,42
same,"residual kinase activity, PRK2",PRK2,46
same,"residual kinase activity, PKCa",PKCa,67
same,"residual kinase activity, PKCz",PKCz,81
same,"residual kinase activity, CAMKKb",CAMKKb,59
same,"residual kinase activity, SmMLCK",SmMLCK,19
same,"residual kinase activity, MARK3",MARK3,65
same,"residual kinase activity, TBK1",TBK1,81
same,"residual kinase activity, PAK4",PAK4,64
same,"residual kinase activity, Src",Src,72
same,"residual kinase activity, Lck",Lck,82
same,"residual kinase activity, SYK",SYK,71
same,"residual kinase activity, IGF-1R",IGF-1R,54
same,"residual kinase activity, VEG-FR",VEG-FR,21

# From US10231954B2, “Neurodegenerative therapies” (LYTIX BIOPHARMA AS, priority 2014, dated 2019)
